The subject of data set [1] is IL-1-induced chondrocytic chondrolysis. The data set can be described thus: Modulation of the IL-1-induced chondrocytic chondrolysis (chondrolysis compensation). It counts as cell-based, bulls. As to conditions: stimulation factor = proteoglycan content with active compound / IL-1-treated control; interleukin-1 for 8 days, 35S-sulfate incorporation 24 hours; factor >1 = stimulation. The method, then:
(§1) Cartilage cells can maintain their characteristic cartilage matrix metabolism ex vivo in suitable cell or tissue culture, i.e. the controlled synthesis and degradation of the matrix macromolecules, over a period of several weeks to months. These processes can be chemically influenced. […] In both assays, the stimulating action of the test substance is expressed by a stimulation factor which is calculated from the quotient of the specific proteoglycan content under the active compound condition divided by the proteoglycan content under the control condition. In Experiment A, the control condition is the untreated control group and in experimental procedure B this is the interleukin-1 (IL-1)-treated control group. A factor=1 can thus identify no action, a factor of >1 points to a stimulation and a factor of <1 to an inhibitory action.
B) Modulation of the IL-1-induced Chondrocytic Chondrolysis (Chondrolysis Compensation)
Cell preparation was carried out as described under A), if cartilage tissue explants are used these are added directly to the enriched culture medium described above after stamping out cartilage disks of 4 mm diameter and a depth which includes the entire cartilage layer. After adaptation for 5 days, interleukin-1 is added to the medium, 8 units/well for the cell culture, 20 units/well for the tissue culture, and, over the treatment period of 8 days, likewise added again every second day on changing the medium. At the end of the experiments, 1 μCi of Na2^35SO4/well is added and the mixture is incubated for 24 hours. After removing the supernatant, the remaining gels or explants are broken down in the microtiter plates by repeated deepfreezing and thawing and extracted with 8 M guanidine hydrochloride. After centrifugation, the supernatant is separated on a PD10 Sephadex column into free and incorporated sulfate and the radioactivity of the samples, which is a measure of the amount of proteoglycan newly formed, is determined in a β counter.

Data set [2] concerns chondrocytic proteoglycan metabolism. The data set can be described thus: Modulation of the chondrocytic proteoglycan metabolism (PG stimulation). It counts as cell-based, bulls. As to conditions: stimulation factor = proteoglycan content with active compound / untreated control, 10 μm test substance, 8 days, chondrocytes in agarose, Alcian Blue extinction at 610 nm, factor >1 = stimulation. As to the method:
as §1
A) Modulation of the chondrocytic proteoglycan metabolism (PG stimulation)
Cartilage samples are taken under sterile conditions from fetlock joints of freshly slaughtered bulls, incubated with 1% strength pronase (Boehringer) solution in Ham's F12 medium (Serva) at 37° C. for 1 hour, and the enzyme solution is replaced by a 0.025% strength collagenase type A (Worthington) solution in medium and incubated overnight. After filtering through a 50 μm nylon filter, centrifugation, resuspension and vitality testing, a cell suspension of 4×10^6 cells/ml of medium, enriched with 20% fetal calf serum, is prepared and mixed at approximately 38° C. with 2% strength low-melting agarose (Seplaque) in the ratio 1:1 and 0.1 ml of this is pipetted into each well of a 24 well microtiter plate. After gelling, the samples are covered with a layer of 0.5 ml/well of medium, which is enriched with 5% serum, 25 μm/ml of ascorbic acid, and in groups of up to 6-8 wells with 10 μm of the test substance. The medium in a constant composition is renewed every second day for a treatment period of 8 days. At the end of the treatment, washing is carried out with medium, 1 ml of a buffered (pH 5.6) 1% strength Alcian Blue (Sigma) solution, enriched with 25% strength glutaraldehyde in the ratio 7:1, per well is added and the mixture is incubated for 48 hours. After washing and differentiating with 3% strength acetic acid, dehydration is carried out up to 70% strength ethanol content by means of the rising alcohol series, and then the bound dye is extracted at 4° C. for 24 hours using 8 M guanidine hydrochloride. The stoichiometric binding of the Alcian Blue to the chondroitin sulfate side chains of the proteoglycans allows a quantification of the enriched matrix via the determination of the extinction of the dye solution at 610 nm.

Usually fold induction stands for the signal under treatment as a multiple of the control signal. In general, melting point refers to the temperature, or range, at which the solid turns liquid. As to `C=CC(O)C/C(O)=C(\C#N)C(=O)Nc1ccc(C(F)(F)F)cc1` (stereo not drawn) [Example 27], the melting point is 141 °C. In data set [1], the Chondrolysis compensation worked out at 1.6. This compound also showed a fold induction at 10 µM in data set [2] (Chondrocyte, 192 h) of 1.7.

With `C=CC(O)C/C(O)=C(\C#N)C(=O)Nc1ccc(C(F)(F)F)cc1` (stereo not drawn) [Example 39], the melting point fell in the range of 133 to 135 °C. Moreover, in data set [1], the Chondrolysis compensation was 1.6. In addition, the PG stimulation in data set [2] is 1.7.
